# Measurements from ChEMBL document CHEMBL1201861, “Genomics of Drug Sensitity in Cancer screening data, Wellcome Trust Sanger Institute”.
# What was measured:
# SCLC-21H = assay: cells; assay type: functional, cell-based, Homo sapiens; details: Homo sapiens, SCLC-21H;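 note: growth inhibition of cultured human SCLC-21H cells, read out with a cell viability assay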
# Description: SANGER: Inhibition of human SCLC-21H cell growth in a cell viability assay.
# LP-1 = assay: cells; assay type: functional, cell-based, Homo sapiens; details: Homo sapiens, LP-1;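 note: growth inhibition of human LP-1 cells, with the read-out taken from a cell viability assay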
# Description: SANGER: Inhibition of human LP-1 cell growth in a cell viability assay.
# NCI-H2196 = assay: cells; assay type: functional, cell-based, Homo sapiens; details: Homo sapiens, NCI-H2196;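 note: cell viability assay used as the readout of growth inhibition in NCI-H2196 cells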
# Description: SANGER: Inhibition of human NCI-H2196 cell growth in a cell viability assay.
# NCI-H748 = assay: cells; assay type: functional, cell-based, Homo sapiens; details: Homo sapiens, NCI-H748;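 note: growth inhibition of NCI-H748 cells, measured by a cell viability assay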
# Description: SANGER: Inhibition of human NCI-H748 cell growth in a cell viability assay.
# LC4-1 = assay: cells; assay type: functional, cell-based, Homo sapiens; details: Homo sapiens, LC4-1;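 note: growth inhibition of LC4-1 cells, read out with a cell viability assay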
# Description: SANGER: Inhibition of human LC4-1 cell growth in a cell viability assay.
# JIYOYE = assay: cells; assay type: functional, cell-based, Homo sapiens; details: Homo sapiens, JIYOYE
# Description: SANGER: Inhibition of human JiyoyeP-2003 cell growth in a cell viability assay.
# CHP-126 = assay: cells; assay type: functional, cell-based, Homo sapiens; details: Homo sapiens, CHP-126
# Description: SANGER: Inhibition of human CHP-126 cell growth in a cell viability assay.
# THP-1 = assay: cells; assay type: functional, cell-based, Homo sapiens; details: Homo sapiens, THP-1;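 note: growth inhibition of THP-1 cells, read out via a cell viability assay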
# Description: SANGER: Inhibition of human THP-1 cell growth in a cell viability assay.
# SCC-3 = assay: cells; assay type: functional, cell-based, Homo sapiens; details: Homo sapiens, SCC-3;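 note: cell viability assay measuring inhibition of SCC-3 cell growth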
# Description: SANGER: Inhibition of human SCC-3 cell growth in a cell viability assay.
# COR-L279 = assay: SANGER: Inhibition of human COR-L279 cell growth in a cell viability assay.; assay type: functional, cell-based; details: Homo sapiens, COR-L279
# NB1 = assay: cells; assay type: functional, cell-based, Homo sapiens; details: Homo sapiens, NB1;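 note: reduction of NB1 cell proliferation, read out with a viability assay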
# Description: SANGER: Inhibition of human NB1 cell growth in a cell viability assay.
# SUP-T1 = assay: cells; assay type: functional, cell-based, Homo sapiens; details: Homo sapiens, SUP-T1;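 note: growth inhibition of human SUP-T1 cells, read out as cell viability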
# Description: SANGER: Inhibition of human SUP-T1 cell growth in a cell viability assay.
# RL = assay: cells; assay type: functional, cell-based, Homo sapiens; details: Homo sapiens, RL
# Description: SANGER: Inhibition of human RL cell growth in a cell viability assay.
# ARH-77 = assay: cells; assay type: functional, cell-based, Homo sapiens; details: Homo sapiens, ARH-77;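 note: growth inhibition of ARH-77 cells, read out by a cell viability assay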
# Description: SANGER: Inhibition of human ARH-77 cell growth in a cell viability assay.
# NCI-H719 = assay: cells; assay type: functional, cell-based, Homo sapiens; details: Homo sapiens, NCI-H719;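 note: growth inhibition of the cultured cell line, read out with a viability assay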
# Description: SANGER: Inhibition of human NCI-H719 cell growth in a cell viability assay.
# PFSK-1 = assay: cells; assay type: functional, cell-based, Homo sapiens; details: Homo sapiens, PFSK-1;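 note: cell viability assay measuring how strongly compounds suppress growth of human PFSK-1 cells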
# Description: SANGER: Inhibition of human PFSK-1 cell growth in a cell viability assay.
# Hs-578T = assay: cells; assay type: functional, cell-based, Homo sapiens; details: Homo sapiens, Hs-578T
# Description: SANGER: Inhibition of human Hs-578-T cell growth in a cell viability assay.
# KYSE-180 = assay: cells; assay type: functional, cell-based, Homo sapiens; details: Homo sapiens, KYSE-180;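 note: growth inhibition of KYSE-180 cells, read out with a cell viability assay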
# Description: SANGER: Inhibition of human KYSE-180 cell growth in a cell viability assay.
# ChaGo-K-1 = assay: cells; assay type: functional, cell-based, Homo sapiens; details: Homo sapiens, ChaGo-K-1;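 note: growth inhibition of ChaGo-K-1 cells, read out with a cell viability assay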
# Description: SANGER: Inhibition of human ChaGo-K-1 cell growth in a cell viability assay.
# HCT-116 = assay: cells; assay type: functional, cell-based, Homo sapiens; details: Homo sapiens, HCT-116
# Description: SANGER: Inhibition of human HCT-116 cell growth in a cell viability assay.
# COLO-678 = assay: cells; assay type: functional, cell-based, Homo sapiens; details: Homo sapiens, COLO-678
# Description: SANGER: Inhibition of human COLO-678 cell growth in a cell viability assay.
# SF-295 = assay: cells; assay type: functional, cell-based, Homo sapiens; details: Homo sapiens, SF-295;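 note: growth inhibition of SF-295 cells, read out with a cell viability assay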
# Description: SANGER: Inhibition of human SF295 cell growth in a cell viability assay.
# KOSC-2 = assay: cells; assay type: functional, cell-based, Homo sapiens; details: Homo sapiens, KOSC-2;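 note: growth inhibition of KOSC-2 cells, read out by a cell viability assay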
# Description: SANGER: Inhibition of human KOSC-2 cell growth in a cell viability assay.
# OVCAR-8 = assay: cells; assay type: functional, cell-based, Homo sapiens; details: Homo sapiens, OVCAR-8;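 note: growth inhibition of human OVCAR-8 cells, read out by a cell viability assay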
# Description: SANGER: Inhibition of human OVCAR-8 cell growth in a cell viability assay.
# TCC-SUP = assay: cells; assay type: functional, cell-based, Homo sapiens; details: Homo sapiens, TCC-SUP;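 note: growth inhibition of TCC-SUP cells, read out with a cell viability assay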
# Description: SANGER: Inhibition of human TCCSUP cell growth in a cell viability assay.
# KYSE-510 = assay: cells; assay type: functional, cell-based, Homo sapiens; details: Homo sapiens, KYSE-510;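 note: cell viability readout used to measure how strongly growth of the cell line is suppressed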
# Description: SANGER: Inhibition of human KYSE-510 cell growth in a cell viability assay.
# MEL-HO = assay: cells; assay type: functional, cell-based, Homo sapiens; details: Homo sapiens, MEL-HO
# Description: SANGER: Inhibition of human MEL-HO cell growth in a cell viability assay.
# M059J = assay: cells; assay type: functional, cell-based, Homo sapiens; details: Homo sapiens, M059J;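 note: growth inhibition of M059J cells, read out with a cell viability assay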
# Description: SANGER: Inhibition of human M059J cell growth in a cell viability assay.
# NCI-H1755 = assay: cells; assay type: functional, cell-based, Homo sapiens; details: Homo sapiens, NCI-H1755;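 note: cell viability readout used to measure growth inhibition of NCI-H1755 cells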
# Description: SANGER: Inhibition of human NCI-H1755 cell growth in a cell viability assay.
# NCI-H1651 = assay: cells; assay type: functional, cell-based, Homo sapiens; details: Homo sapiens, NCI-H1651;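 note: Read-out is a cell viability assay, with IC50 expressing inhibition of NCI-H1651 cell growth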
# Description: SANGER: Inhibition of human NCI-H1651 cell growth in a cell viability assay.
# HCC1806 = assay: cells; assay type: functional, cell-based, Homo sapiens; details: Homo sapiens, HCC1806;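 note: growth inhibition of the cancer cell line, determined with a cell viability assay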
# Description: SANGER: Inhibition of human HCC1806 cell growth in a cell viability assay.
# 647-V = assay: cells; assay type: functional, cell-based, Homo sapiens; details: Homo sapiens, 647-V;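 note: growth inhibition of 647-V cells, read out with a cell viability assay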
# Description: SANGER: Inhibition of human 647-V cell growth in a cell viability assay.
# SNU-423 = assay: cells; assay type: functional, cell-based, Homo sapiens; details: Homo sapiens, SNU-423
# Description: SANGER: Inhibition of human SNU-423 cell growth in a cell viability assay.
# HN = assay: cells; assay type: functional, cell-based, Homo sapiens; details: Homo sapiens, HN
# Description: SANGER: Inhibition of human HN cell growth in a cell viability assay.
# Daoy = assay: cells; assay type: functional, cell-based, Homo sapiens; details: Homo sapiens, Daoy;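 note: daoy cell growth inhibition, read out as cell viability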
# Description: SANGER: Inhibition of human Daoy cell growth in a cell viability assay.
# SNU-449 = assay: cells; assay type: functional, cell-based, Homo sapiens; details: Homo sapiens, SNU-449
# Description: SANGER: Inhibition of human SNU-449 cell growth in a cell viability assay.
# SW626 = assay: cells; assay type: functional, cell-based, Homo sapiens; details: Homo sapiens, SW626;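 note: growth inhibition of SW626 cells, measured with a cell viability assay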
# Description: SANGER: Inhibition of human SW626 cell growth in a cell viability assay.
# HPAF-II = assay: cells; assay type: functional, cell-based, Homo sapiens; details: Homo sapiens, HPAF-II;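 note: growth inhibition of HPAF-II cells, read out with a cell viability assay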
# Description: SANGER: Inhibition of human HPAF-II cell growth in a cell viability assay.
smiles,measurement,setting,value
OCCCNc1cc(-c2ccnc(Nc3cccc(Cl)c3)n2)ccn1,IC50,SCLC-21H,> 0.256 µM
same,IC50,LP-1,0.0521 µM
same,IC50,NCI-H2196,0.112 µM
same,IC50,NCI-H748,0.0764 µM
same,IC50,LC4-1,0.0713 µM
same,IC50,JIYOYE,0.0322 µM
same,IC50,CHP-126,0.135 µM
same,IC50,THP-1,> 0.256 µM
same,IC50,SCC-3,0.0378 µM
same,IC50,COR-L279,0.171 µM
same,IC50,NB1,0.0843 µM
same,IC50,SUP-T1,> 0.256 µM
same,IC50,RL,> 0.256 µM
same,IC50,ARH-77,0.0819 µM
same,IC50,NCI-H719,> 0.256 µM
COc1cc(N2CCN(C)CC2)ccc1Nc1ncc2c(n1)N(C)c1ccccc1C(=O)N2C,IC50,SCLC-21H,> 8 µM
same,IC50,LP-1,> 8 µM
same,IC50,NCI-H2196,> 8 µM
same,IC50,NCI-H748,> 8 µM
same,IC50,LC4-1,4.02 µM
same,IC50,JIYOYE,6.89 µM
same,IC50,CHP-126,> 8 µM
same,IC50,THP-1,> 8 µM
same,IC50,SCC-3,> 8 µM
same,IC50,COR-L279,7.99 µM
same,IC50,NB1,> 8 µM
same,IC50,SUP-T1,2.23 µM
same,IC50,RL,2.78 µM
same,IC50,ARH-77,> 8 µM
same,IC50,NCI-H719,> 8 µM
CC[C@H](CO)Nc1nc(NCc2ccccc2)c2ncn(C(C)C)c2n1 [SELICICLIB],IC50,SCLC-21H,> 16 µM
same,IC50,LP-1,> 16 µM
same,IC50,NCI-H2196,> 16 µM
same,IC50,NCI-H748,> 16 µM
same,IC50,LC4-1,> 16 µM
same,IC50,JIYOYE,8.5 µM
same,IC50,CHP-126,> 16 µM
same,IC50,THP-1,> 16 µM
same,IC50,SCC-3,14.3 µM
same,IC50,COR-L279,12.3 µM
same,IC50,NB1,12.3 µM
same,IC50,SUP-T1,> 16 µM
same,IC50,RL,> 16 µM
same,IC50,ARH-77,> 16 µM
same,IC50,NCI-H719,> 16 µM
CN(C)C(=N)NC(=N)N [METFORMIN],IC50,PFSK-1,> 20000 µM
same,IC50,Hs-578T,> 20000 µM
same,IC50,KYSE-180,9060 µM
same,IC50,ChaGo-K-1,8890 µM
same,IC50,HCT-116,> 20000 µM
same,IC50,COLO-678,> 20000 µM
same,IC50,SF-295,6170 µM
same,IC50,KOSC-2,3400 µM
same,IC50,OVCAR-8,> 20000 µM
same,IC50,TCC-SUP,4010 µM
same,IC50,KYSE-510,> 20000 µM
same,IC50,MEL-HO,8840 µM
same,IC50,M059J,> 20000 µM
same,IC50,NCI-H1755,> 20000 µM
same,IC50,NCI-H1651,18500 µM
same,IC50,HCC1806,> 20000 µM
same,IC50,647-V,> 20000 µM
same,IC50,SNU-423,> 20000 µM
same,IC50,HN,> 20000 µM
same,IC50,Daoy,> 20000 µM
same,IC50,SNU-449,> 20000 µM
same,IC50,SW626,> 20000 µM
same,IC50,HPAF-II,7740 µM
CC(=O)O[C@H]1C(=O)[C@@]2(C)[C@H]([C@H](OC(=O)c3ccccc3)[C@]3(O)C[C@H](OC(=O)[C@H](O)[C@@H](NC(=O)c4ccccc4)c4ccccc4)C(C)=C1C3(C)C)[C@]1(OC(C)=O)CO[C@@H]1C[C@@H]2O [PACLITAXEL],IC50,SCLC-21H,0.0588 µM
same,IC50,LP-1,> 0.102 µM
same,IC50,NCI-H2196,> 0.102 µM
same,IC50,NCI-H748,> 0.102 µM
same,IC50,LC4-1,0.0435 µM
same,IC50,JIYOYE,0.0218 µM
same,IC50,CHP-126,> 0.102 µM
same,IC50,THP-1,> 0.102 µM
same,IC50,SCC-3,0.012 µM
same,IC50,COR-L279,0.00999 µM
same,IC50,NB1,0.0269 µM
same,IC50,SUP-T1,> 0.102 µM
same,IC50,RL,> 0.102 µM
same,IC50,ARH-77,0.026 µM
same,IC50,NCI-H719,> 0.102 µM
N[C@@H](CSC(c1ccccc1)(c1ccccc1)c1ccccc1)C(=O)O [S-TRITYL-L-CYSTEINE],IC50,SCLC-21H,2.83 µM
same,IC50,LP-1,3.11 µM
same,IC50,NCI-H2196,> 5.12 µM
same,IC50,NCI-H748,> 5.12 µM
same,IC50,LC4-1,2.02 µM
same,IC50,JIYOYE,1.7 µM
same,IC50,CHP-126,> 5.12 µM
same,IC50,THP-1,> 5.12 µM
same,IC50,SCC-3,1.26 µM
same,IC50,COR-L279,2.86 µM
same,IC50,NB1,2.94 µM
same,IC50,SUP-T1,> 5.12 µM
same,IC50,RL,> 5.12 µM
same,IC50,ARH-77,3.54 µM
same,IC50,NCI-H719,> 5.12 µM
CCN(CC)CCNC(=O)c1c(C)[nH]c(/C=C2\C(=O)Nc3ccc(F)cc32)c1C [SUNITINIB],IC50,SCLC-21H,> 8 µM
same,IC50,LP-1,> 8 µM
same,IC50,NCI-H2196,> 8 µM
same,IC50,NCI-H748,> 8 µM
same,IC50,LC4-1,4.38 µM
same,IC50,JIYOYE,> 8 µM
same,IC50,CHP-126,> 8 µM
same,IC50,THP-1,> 8 µM
same,IC50,SCC-3,2.83 µM
same,IC50,COR-L279,> 8 µM
same,IC50,NB1,1.96 µM
same,IC50,SUP-T1,> 8 µM
same,IC50,RL,> 8 µM
same,IC50,ARH-77,7.54 µM
same,IC50,NCI-H719,> 8 µM
